What was measured:
Type in all cases: functional
PC-3 = assay: Growth inhibition of human PC3 cells assessed as cell growth at 30 uM incubated for 48 hrs by sulforhodamine B assay relative to control; conditions: PC-3, 48 h, read-out: Activity
U-251 = assay: Growth inhibition of human U251 cells assessed as cell growth at 0.003 uM incubated for 48 hrs by sulforhodamine B assay relative to control; conditions: U-251, 48 h, read-out: Activity
MDA-MB-435 = assay: Growth inhibition of human MDA-MB-435 cells assessed as cell growth at 3 uM incubated for 48 hrs by sulforhodamine B assay relative to control; conditions: MDA-MB-435, 48 h, read-out: Activity
HCT-15 [1] = assay: Growth inhibition of human HCT15 cells assessed as cell growth at 0.003 uM incubated for 48 hrs by sulforhodamine B assay relative to control; conditions: HCT-15, 48 h, read-out: Activity
MOLT-4 = assay: Growth inhibition of human MOLT4 cells assessed as cell growth at 0.3 uM incubated for 48 hrs by sulforhodamine B assay relative to control; conditions: MOLT-4, 48 h, read-out: Activity
M14 = assay: Growth inhibition of human M14 cells assessed as cell growth at 0.003 uM incubated for 48 hrs by sulforhodamine B assay relative to control; conditions: M14, 48 h, read-out: Activity
MDA-MB-231 = assay: Growth inhibition of human MDA-MB-231 cells assessed as cell growth at 30 uM incubated for 48 hrs by sulforhodamine B assay relative to control; conditions: MDA-MB-231, 48 h, read-out: Activity
HCT-116 [2] = assay: Growth inhibition of human HCT116 cells assessed as cell growth at 0.003 uM incubated for 48 hrs by sulforhodamine B assay relative to control; conditions: HCT-116, 48 h, read-out: Activity
NCI-H522 [3] = assay: Growth inhibition of human NCI-H522 cells assessed as cell growth at 30 uM incubated for 48 hrs by sulforhodamine B assay relative to control; conditions: NCI-H522, 48 h, read-out: Activity
OVCAR-8 [4] = assay: Growth inhibition of human OVCAR8 cells assessed as cell growth at 30 uM incubated for 48 hrs by sulforhodamine B assay relative to control; conditions: OVCAR-8, 48 h, read-out: Activity
MCF7 [5] = assay: Growth inhibition of human MCF7 cells assessed as cell growth at 0.003 uM incubated for 48 hrs by sulforhodamine B assay relative to control; conditions: MCF7, 48 h, read-out: Activity
HL-60(TB) = assay: Growth inhibition of human HL-60(TB) cells assessed as cell growth at 0.003 uM incubated for 48 hrs by sulforhodamine B assay relative to control; conditions: HL-60, 48 h, read-out: Activity
DU-145 [6] = assay: Growth inhibition of human DU145 cells assessed as cell growth at 0.03 uM incubated for 48 hrs by sulforhodamine B assay relative to control; conditions: DU-145, 48 h, read-out: Activity
OVCAR-8 [7] = assay: Growth inhibition of human OVCAR8 cells assessed as cell growth at 0.3 uM incubated for 48 hrs by sulforhodamine B assay relative to control; conditions: OVCAR-8, 48 h, read-out: Activity
NCI-H460 = assay: Growth inhibition of human NCI-H460 cells assessed as cell growth at 30 uM incubated for 48 hrs by sulforhodamine B assay relative to control; conditions: NCI-H460, 48 h, read-out: Activity
DU-145 [8] = assay: Growth inhibition of human DU145 cells assessed as cell growth at 10 uM incubated for 48 hrs by sulforhodamine B assay relative to control; conditions: DU-145, 48 h, read-out: Activity
HCT-116 [9] = assay: Growth inhibition of human HCT116 cells assessed as cell growth at 0.1 uM incubated for 48 hrs by sulforhodamine B assay relative to control; conditions: HCT-116, 48 h, read-out: Activity
HCT-15 [10] = assay: Growth inhibition of human HCT15 cells assessed as cell growth at 0.01 uM incubated for 48 hrs by sulforhodamine B assay relative to control; conditions: HCT-15, 48 h, read-out: Activity
NCI-H322M = assay: Growth inhibition of human NCI-H322M cells assessed as cell growth at 0.1 uM incubated for 48 hrs by sulforhodamine B assay relative to control; conditions: read-out: Activity
SK-MEL-2 = assay: Growth inhibition of human SK-MEL-2 cells assessed as cell growth at 0.01 uM incubated for 48 hrs by sulforhodamine B assay relative to control; conditions: SK-MEL-2, 48 h, read-out: Activity
Malme-3M = assay: Growth inhibition of human MALME-3M cells assessed as cell growth at 0.1 uM incubated for 48 hrs by sulforhodamine B assay relative to control; conditions: read-out: Activity
BT-549 = assay: Growth inhibition of human BT549 cells assessed as cell growth at 100 uM incubated for 48 hrs by sulforhodamine B assay relative to control; conditions: BT-549, 48 h, read-out: Activity
SF-268 = assay: Growth inhibition of human SF268 cells assessed as cell growth at 0.1 uM incubated for 48 hrs by sulforhodamine B assay relative to control; conditions: SF-268, 48 h, read-out: Activity
SF-295 = assay: Growth inhibition of human SF295 cells assessed as cell growth at 0.01 uM incubated for 48 hrs by sulforhodamine B assay relative to control; conditions: SF-295, 48 h, read-out: Activity
NCI-H23 = assay: Growth inhibition of human NCI-H23 cells assessed as cell growth at 100 uM incubated for 48 hrs by sulforhodamine B assay relative to control; conditions: NCI-H23, 48 h, read-out: Activity
ACHN = assay: Growth inhibition of human ACHN cells assessed as cell growth at 10 uM incubated for 48 hrs by sulforhodamine B assay relative to control; conditions: read-out: Activity
NCI-H522 [11] = assay: Growth inhibition of human NCI-H522 cells assessed as cell growth at 0.01 uM incubated for 48 hrs by sulforhodamine B assay relative to control; conditions: NCI-H522, 48 h, read-out: Activity
786-0 = assay: Growth inhibition of human 786-0 cells assessed as cell growth at 1 uM incubated for 48 hrs by sulforhodamine B assay relative to control; conditions: 786-0, 48 h, read-out: Activity
NCI-H226 = assay: Growth inhibition of human NCI-H226 cells assessed as cell growth at 10 uM incubated for 48 hrs by sulforhodamine B assay relative to control; conditions: NCI-H226, 48 h, read-out: Activity
RXF 393 = assay: Growth inhibition of human RXF393 cells assessed as cell growth at 100 uM incubated for 48 hrs by sulforhodamine B assay relative to control; conditions: RXF 393, 48 h, read-out: Activity
HOP-62 = assay: Growth inhibition of human HOP62 cells assessed as cell growth at 0.01 uM incubated for 48 hrs by sulforhodamine B assay relative to control; conditions: HOP-62, 48 h, read-out: Activity
HT-29 = assay: Growth inhibition of human HT-29 cells assessed as cell growth at 1 uM incubated for 48 hrs by sulforhodamine B assay relative to control; conditions: HT-29, 48 h, read-out: Activity
MCF7 [12] = assay: Growth inhibition of human MCF7 cells assessed as cell growth at 0.1 uM incubated for 48 hrs by sulforhodamine B assay relative to control; conditions: MCF7, 48 h, read-out: Activity
SK-MEL-5 = assay: Growth inhibition of human SK-MEL-5 cells assessed as cell growth at 10 uM incubated for 48 hrs by sulforhodamine B assay relative to control; conditions: SK-MEL-5, 48 h, read-out: Activity

Row | Compound | growth at 30 µM (PC-3) [%] | growth at 0.003 µM (U-251) [%] | growth at 3 µM (MDA-MB-435) [%] | growth at 0.003 µM (HCT-15 [1]) [%] | growth at 0.3 µM (MOLT-4) [%] | growth at 0.003 µM (M14) [%] | growth at 30 µM (MDA-MB-231) [%] | growth at 0.003 µM (HCT-116 [2]) [%] | growth at 30 µM (NCI-H522 [3]) [%] | growth at 30 µM (OVCAR-8 [4]) [%] | growth at 0.003 µM (MCF7 [5]) [%] | growth at 0.003 µM (HL-60(TB)) [%] | growth at 0.03 µM (DU-145 [6]) [%] | growth at 0.3 µM (OVCAR-8 [7]) [%] | growth at 30 µM (NCI-H460) [%] | growth at 10 µM (DU-145 [8]) [%] | growth at 0.1 µM (HCT-116 [9]) [%] | growth at 0.01 µM (HCT-15 [10]) [%] | growth at 0.1 µM (NCI-H322M) [%] | growth at 0.01 µM (SK-MEL-2) [%] | other results
1 | COc1cc2cc(Oc3ccc(NC(=O)Nc4ccc(Cl)c(C(F)(F)F)c4)cc3)c(C)nc2cc1OC | -50 | 97 | 9 | 95 | 98 | 97 | -74 | 100 | -81 | -32 | 98 | 96 | 96 | 96 | -62 |  |  |  |  |  | 
2 | COc1cc2cc(Oc3ccc(NC(=O)Nc4ccc(Cl)c(Cl)c4)cc3)c(C)nc2cc1OC |  |  |  |  |  |  |  |  |  |  |  |  |  |  |  | 19 | 102 | 100 | 103 | 116 | growth at 0.1 µM (Malme-3M): 105%; growth at 100 µM (BT-549): -72%; growth at 0.1 µM (SF-268): 109%; growth at 0.01 µM (SF-295): 88%; growth at 100 µM (NCI-H23): -59%; growth at 10 µM (ACHN): 5%; growth at 0.01 µM (NCI-H522 [11]): 99%; growth at 1 µM (786-0): 86%; growth at 10 µM (NCI-H226): -7%; growth at 100 µM (RXF 393): -65%; growth at 0.01 µM (HOP-62): 102%; growth at 1 µM (HT-29): 108%; growth at 0.1 µM (MCF7 [12]): 92%; growth at 10 µM (SK-MEL-5): -9%
3 | Cc1nc2cc(O)c(O)cc2cc1Oc1ccc(NC(=O)Nc2ccc(Cl)c(Cl)c2)cc1 | 6 | 95 | 71 | 100 | 106 | 96 | 6 | 93 | -46 | 1 | 94 | 102 | 111 | 94 | -44 |  |  |  |  |  | 
4 | COc1cc2cc(Oc3ccc(NC(=O)Nc4cc(C(F)(F)F)cc(C(F)(F)F)c4)cc3)c(C)nc2cc1OC |  |  |  |  |  |  |  |  |  |  |  |  |  |  |  | -2 | 106 | 93 | 90 | 106 | growth at 0.1 µM (Malme-3M): 87%; growth at 100 µM (BT-549): -61%; growth at 0.1 µM (SF-268): 92%; growth at 0.01 µM (SF-295): 88%; growth at 100 µM (NCI-H23): -68%; growth at 10 µM (ACHN): -57%; growth at 0.01 µM (NCI-H522 [11]): 92%; growth at 1 µM (786-0): 87%; growth at 10 µM (NCI-H226): -60%; growth at 100 µM (RXF 393): -78%; growth at 0.01 µM (HOP-62): 88%; growth at 1 µM (HT-29): 75%; growth at 0.1 µM (MCF7 [12]): 92%; growth at 10 µM (SK-MEL-5): -79%

— ChEMBL document CHEMBL3994622, “Design and synthesis of new RAF kinase-inhibiting antiproliferative quinoline derivatives. Part 2: Diarylurea derivatives” (Eur J Med Chem, 2017)
